Experimental data published in patent US20260049337A1, “A R[…] A[…] OF INHIBITING TUMOR P[…] […] TIME IN TUMOR-BEARING I[…] USE THEREOF” (NANJING VIROTHER BIOPHARMACEUTICAL CO., LTD., priority 2022, published 2026).

Tests used:
[1] = tested on: LCN2 expression in CD8+ T cells; assay: CD8+ T cells cultivated with Panc02 supernatant, FACScan for Lcn2; assay type: cell-based; settings: 24 h, vs absence of agonist, p<0.001
Experimental: Panc02 cells were cultivated in DMEM for 48 h, then supernatant was harvested and added into CD8+ T cells for further 24 h cultivation in the presence or absence of GLP1(7-36) or GLP1 analogue (Liraglutide) followed by FACScan for Lcn2 determination (FIG. VI(B)-3B).

[2] = tested on: LCN2 expression in CD8+ T cells; assay: Panc02 cells cocultured with CD8+ T cells, flow cytometry for LCN2; assay type: cell-based; settings: coculture with Panc02 for 24 h; vs coculture without GLP1(7-36), p<0.01
Experimental: Panc02 cells were cocultured with CD8+ T cells with or without GLP1(7-36) for 24 h, then T cells were subjected to flow cytometry for determination of LCN2 expression (FIG. 28A).

GLP-1(7-36): GLP-1 receptor agonist peptide, SEQ ID NO: 1, HAEGTFTSDVSSYLEGQAAKEFIAWLVKGR
Lcn2 expression in CD8+ T cells [1]: statistically significantly reduced
Lcn2 expression in CD8+ T cells [2]: statistically significantly reduced
